The source of these data is US20210009541A1, “FUNGICIDAL OXADIAZOLES” (Bayer Aktiengesellschaft, priority 2018, published 2021).

A short description of data set [1]: LogP by HPLC on reversed phase columns (EEC directive 79/831 Annex V.A8). Type of data set: physicochemical. The following applies: for chromatographic logP: reversed phase HPLC column. Here is the method: [table] If more than one Log P value is available within the same method, all the values are given and separated by “+”. […] Lambda-max-values were determined using UV-spectra from 200 nm to 400 nm and the peak values of the chromatographic signals.

Data set [2] deals with Colletotrichum lindemuthianum. Nature of the data set: Example E: Colletotrichum lindemuthianum in vitro cell test. Type of data set: cell-based. The following applies: 144 h, 20 ppm of active ingredient, liquid culture, 6 days incubation, read-out: efficacy (inhibition of fungal growth). Here is the method:
Example E: Colletotrichum lindemuthianum In Vitro Cell Test
• Solvent: DMSO Culture medium: 14.6 g anhydrous D-glucose (VWR), 7.1 g Mycological Peptone (Oxoid), 1.4 g granulated Yeast Extract (Merck), QSP 1 liter • Inoculum: spores suspension
Active ingredients were solubilized in DMSO and the solution used to prepare the required range of concentrations. The final concentration of DMSO used in the assay was 1%.
A spore suspension of C. lindemuthianum was prepared and diluted to the desired spore density.
The active ingredients were evaluated for their ability to inhibit spores germination and mycelium growth in liquid culture assay. The compounds were added in the desired concentration to the culture medium with spores. After 6 days incubation, fungi-toxicity of compounds was determined by spectrometric measurement of mycelium growth. Inhibition of fungal growth was determined by comparing the absorbance values in wells containing the active ingredient with the absorbance in control wells without active ingredient.

Data set [3] relates to Phakosporra pachirrhizi. Nature of the data set: Example D: fungicidal activity against Phakosporra pachirrhizi (spore germination, 96-well imaging). Conditions: 30 ppm of active ingredient; wild-type spores, 4 hours at 21° C.; read-out: efficacy (inhibition of the fungal germination). Type of data set: cell-based. Here is the method:
Example D: Fungicidal Activity Against Phakosporra pachirrhizi
Cryo-conserved wild-type spores of the biotroph Phakosporra pachirrhizi are humidified in dedicated chamber overnight at 18° C. in the dark. The next day, a solution of spores at 7×10^3 sp/ml is prepared in a water based growth medium (DH2O+0.2 mM MOPS at pH 7+0.01% Tween 20) and spores are distributed in a 96-MTPS (final volume of 200 μL per well) thanks to a dispenser robot. Each molecule is tested at 10 doses (from 30 to 0.002 ppm final concentration) and accordingly 1.2 μL of each dilution is transferred in dedicated well to end-up with a final concentration of 0.6% DMSO. Wild-type spores and molecules are incubated for 4 hours at 21° C., and 6 images par well are then acquired with Transmitted Light images (Image Xpress Micro microscope, Molecular Devices, Objective 10λ, 6 images per well). Detection and quantification of the number of germinated spores per image is performed with a dedicated in-house developed algorithm (MetaXpress software, Molecular Devices).

[4] abbreviates: method [a]: LC-UV, acidic range, 0.1% formic acid in water and acetonitrile as eluent.

Like-named read-outs stand apart in the source and are kept apart here. Marks after values point to notes of the source that are not given here.

For `FC(F)(F)c1nc(-c2ccc3[nH]ncc3c2)no1` [Compound I-005, 5-[5-(Trifluoromethyl)-1,2,4-oxadiazol-3-yl]-1H-indazole], the chromatographic logP – broadly, lipophilicity estimated from chromatographic retention – in data set [1] (setting [4]) was found to be 2.68. In data set [2], the inhibition (usually the percentage by which the read-out fell short of the control) at 20 ppm lay in the range of 90 to 100%. Besides, the inhibition at 30 ppm in data set [3] fell in the range of 90 to 100%.

As for `COCCn1ncc2cc(-c3noc(C(F)(F)F)n3)ccc21` [Compound I-013, 1-(2-Methoxyethyl)-5-[5-(trifluoromethyl)-1,2,4-oxadiazol-3-yl]-1H-indazole], the chromatographic logP in data set [1] (setting [4]) was 3.31. Also, in data set [2], the inhibition at 20 ppm was 80 to 89%. In addition, in data set [3], the inhibition at 30 ppm fell in the range of 80 to 89%.

Compound `COCCn1cc2cc(-c3noc(C(F)(F)F)n3)ccc2n1` [Compound I-014, 2-(2-Methoxyethyl)-5-[5-(trifluoromethyl)-1,2,4-oxadiazol-3-yl]-2H-indazole] came in with a chromatographic logP in data set [1] (setting [4]) of 2.96. The inhibition at 20 ppm in data set [2] is 80 to 89%. In addition, the inhibition at 30 ppm in data set [3] lay in the range of 70 to 79%.

Compound `CON(C(C)=O)C1CCCc2cc(-c3noc(C(F)(F)F)n3)ccc21` (stereo not drawn) [Compound I-020, N-Methoxy-N-{6-[5-(trifluoromethyl)-1,2,4-oxadiazol-3-yl]-1,2,3,4-tetrahydronaphthalen-1-yl}acetamide] displayed a chromatographic logP in data set [1] (setting [4]) of 3.79. Besides, the inhibition at 20 ppm in data set [2] lay within 90 to 100%. Moreover, the inhibition at 30 ppm in data set [3] was in the range of 70 to 79%.

As for `CN(C)C(=O)Oc1ccc2cc(-c3noc(C(F)(F)F)n3)ccc2c1` [Compound I-034], the LogP in data set [1] was 4.18^[a].

On to `O=C(c1cnc2ccc(-c3noc(C(F)(F)F)n3)cn12)C(F)(F)F` [Compound I-035], for which the LogP in data set [1] was 3.41^[a].

On to `FC(F)(F)c1nc(-c2ccc3ncc(Br)n3c2)no1` [Compound I-036], for which, in data set [1], the LogP was 2.75^[a].

With `COCCNC(=O)c1cn2cc(-c3noc(C(F)(F)F)n3)ccc2n1` [Compound I-037], the LogP in data set [1] is 2.18^[a].

With `CC(C)(C)OC(=O)N1CCc2cc(-c3noc(C(F)(F)F)n3)ccc2C1` [Compound I-038], in data set [1], the LogP was 4.93^[a].

For the compound `CCOC(=O)c1cn2cc(-c3noc(C(F)(F)F)n3)ccc2n1` [Compound I-039], in data set [1], the LogP is 2.59^[a].

As to `O=C(O)c1cn2cc(-c3noc(C(F)(F)F)n3)ccc2n1` [Compound I-040], the LogP in data set [1] was 1.41^[a].

On to `FC(F)(Cl)c1nc(-c2ccc3nc[nH]c3c2)no1` [Compound I-041], for which, in data set [1], the LogP was 1.57^[a].

Regarding `Nc1ccc2cc(-c3noc(C(F)(F)F)n3)ccc2c1` [Compound I-042], the LogP in data set [1] is 3.47^[a].

For the compound `FC(F)(F)c1nc(-c2ccc3ncsc3c2)no1` [Compound I-043], in data set [1], the LogP was 3.21^[a].

Regarding `FC(F)(F)c1nc(-c2cc(Cl)c3nn[nH]c3c2)no1` [Compound I-044], the LogP in data set [1] was 2.78^[a].

For the compound `CCn1c(C)nc2cc(-c3noc(C(F)(F)F)n3)ccc21` [Compound I-045], the LogP in data set [1] is 1.60^[a].

Regarding `FC(F)(Cl)c1nc(-c2ccc3cc[nH]c3c2)no1` [Compound I-046], in data set [1], the LogP is 3.68^[a].

With `O=C(C1CC1)N1CCc2cc(-c3noc(C(F)(F)F)n3)ccc2C1` [Compound I-047], the LogP in data set [1] was 3.31^[a].

On to `COC(=O)N1CCc2cc(-c3noc(C(F)(F)F)n3)ccc2C1` [Compound I-048], for which the LogP in data set [1] was 3.63^[a].

Consider `CC(=O)N1CCc2cc(-c3noc(C(F)(F)F)n3)ccc2C1` [Compound I-049], for which, in data set [1], the LogP is 2.71^[a].

Take `O=C(Cc1ccccc1)N1CCc2cc(-c3noc(C(F)(F)F)n3)ccc2C1` [Compound I-050]: the LogP in data set [1] was 3.83^[a].

For `COC(=O)Nc1cc2cc(-c3noc(C(F)(F)F)n3)ccc2cn1` [Compound I-051], the LogP in data set [1] was 3.45^[a].

Turning to `CCC(=O)Nc1cc2cc(-c3noc(C(F)(F)F)n3)ccc2cn1` [Compound I-052], in data set [1], the LogP is 3.33^[a].

Regarding `CC(=O)Nc1ccc(-c2noc(C(F)(F)F)n2)c2c1CCO2` [Compound I-053], the LogP in data set [1] is 2.32^[a].

Consider `CC(=O)Nc1cc2cc(-c3noc(C(F)(F)F)n3)ccc2cn1` [Compound I-054], for which the LogP in data set [1] is 2.90^[a].

In the case of `Nc1cc2cc(-c3noc(C(F)(F)F)n3)ccc2cn1` [Compound I-055], in data set [1], the LogP was 2.31^[a].

As for `CC(=O)Nc1ccc(-c2noc(C(F)(F)F)n2)c2c1CCC2` [Compound I-056], the LogP in data set [1] was 3.28^[a].

Regarding `O=C(Nc1ccc2cc(-c3noc(C(F)(F)F)n3)ccc2c1)C(F)(F)F` [Compound I-057], the LogP in data set [1] (setting [4]) was 4.27^[a].

`FC(F)(Cl)c1nc(-c2ccc3ncn(Cc4ccccc4)c3c2)no1` [Compound I-058]: the LogP in data set [1] was 3.23^[a].

As to `FC(F)(F)c1nc(-c2ccc3ncn(Cc4ccccc4)c3c2)no1` [Compound I-059], in data set [1], the LogP was 3.06^[a].

`Cn1cnc2cc(-c3noc(C(F)(F)Cl)n3)ccc21` [Compound I-060]: the LogP in data set [1] was 1.86^[a].

In the case of `Fc1cc2[nH]ncc2cc1-c1noc(C(F)(F)F)n1` [Compound I-061], the LogP in data set [1] was 2.61^[a].

For `Fc1cc2[nH]ncc2cc1-c1noc(C(F)(F)Cl)n1` [Compound I-062], the LogP in data set [1] was 2.78^[a].

Consider `FC(F)(Cl)c1nc(-c2ccc3[nH]ncc3c2)no1` [Compound I-063], for which, in data set [1], the LogP is 2.84^[a].

Regarding `Fc1cc2c(cnn2Cc2ccccc2)cc1-c1noc(C(F)(F)F)n1` [Compound I-064], the LogP in data set [1] was 4.28^[a].

For `Fc1cc2nn(Cc3ccccc3)cc2cc1-c1noc(C(F)(F)F)n1` [Compound I-065], the LogP in data set [1] is 3.92^[a].

`Fc1cc2nn(Cc3ccccc3)cc2cc1-c1noc(C(F)(F)Cl)n1` [Compound I-066]: the LogP in data set [1] was 4.11^[a].
